Reference: patent US9085562B2, “6-alkyl-N-(pyridin-2-yl)-4-aryloxypicolinamide analogs as mGluR5 negative allosteric modulators and methods of making and using the same” (Vanderbilt University, priority 2011, dated 2015)
One block for each compound: values may come before it.

Legend:
rat mGluR5 = target: T1, rat mGluR5 (Rattus norvegicus, UniProt P31424); test: mGluR5 calcium mobilization assay (HEK 293A cells, FDSS); assay type: cell-based; conditions: HEK cells transfected with rat mGluR5; antagonism of glutamate EC80 response; Table 1
T1 construct: expressed in transfected cells
T1 sequence (P31424 21-1171 isoform P31424-2 limits assumed): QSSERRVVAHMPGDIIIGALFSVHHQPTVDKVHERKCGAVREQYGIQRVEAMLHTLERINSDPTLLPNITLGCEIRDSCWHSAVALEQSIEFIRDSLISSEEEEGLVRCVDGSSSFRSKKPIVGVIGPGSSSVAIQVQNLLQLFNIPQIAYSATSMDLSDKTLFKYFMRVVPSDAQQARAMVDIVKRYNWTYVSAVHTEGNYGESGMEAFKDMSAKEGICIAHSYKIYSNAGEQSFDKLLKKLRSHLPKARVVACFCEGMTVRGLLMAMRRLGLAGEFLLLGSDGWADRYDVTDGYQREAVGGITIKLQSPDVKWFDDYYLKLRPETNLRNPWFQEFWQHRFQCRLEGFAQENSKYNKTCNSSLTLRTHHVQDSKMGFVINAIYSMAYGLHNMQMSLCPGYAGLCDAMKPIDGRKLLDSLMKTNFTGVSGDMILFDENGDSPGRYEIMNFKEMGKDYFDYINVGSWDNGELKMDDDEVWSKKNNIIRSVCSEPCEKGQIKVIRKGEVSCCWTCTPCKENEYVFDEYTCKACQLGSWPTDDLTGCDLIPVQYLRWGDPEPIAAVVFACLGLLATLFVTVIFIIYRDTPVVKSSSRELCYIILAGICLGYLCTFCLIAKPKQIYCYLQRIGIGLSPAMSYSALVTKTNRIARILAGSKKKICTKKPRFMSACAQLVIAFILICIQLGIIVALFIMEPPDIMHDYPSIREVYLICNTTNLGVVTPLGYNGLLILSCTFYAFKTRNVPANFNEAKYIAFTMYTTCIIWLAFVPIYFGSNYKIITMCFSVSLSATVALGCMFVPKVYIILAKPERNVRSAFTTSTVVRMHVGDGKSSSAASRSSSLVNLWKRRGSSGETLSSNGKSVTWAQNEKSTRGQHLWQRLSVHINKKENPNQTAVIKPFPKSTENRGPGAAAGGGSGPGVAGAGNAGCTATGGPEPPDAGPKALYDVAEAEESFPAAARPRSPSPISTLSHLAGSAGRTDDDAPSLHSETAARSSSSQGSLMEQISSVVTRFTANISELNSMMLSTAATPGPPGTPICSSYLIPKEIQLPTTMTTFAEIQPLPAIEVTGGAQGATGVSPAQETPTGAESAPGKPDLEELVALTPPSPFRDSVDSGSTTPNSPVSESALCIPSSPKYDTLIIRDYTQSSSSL
Experimental: Human embryonic kidney (HEK) cells transfected with rat or human mGluR5 were plated in clear bottom assay plates for assay in a Functional Drug Screening System (FDSS). The cells were loaded with a Ca2+-sensitive fluorescent dye (e.g., Fluo-4), and the plates were washed and placed in the FDSS instrument. Test compound was applied to cells 3 seconds after baseline readings were taken. Cells were incubated with the test compounds for 140 seconds and then stimulated with an EC20 concentration of an mGluR5 agonist (e.g., glutamate, 3,5-dihydroxyphenylglycine, or quisqualate); 60-80 seconds later an EC80 concentration of agonist was added and readings taken for an additional 40 seconds. Data were collected at 1 Hz. […] Concentration response curves were generated using a four parameter logistical equation.
The above described assay was operated in two modes. In the first mode (utilizing a triple add protocol), a range of concentrations of the present compounds were added to cells, followed by two single fixed concentrations of agonist (EC20 followed by EC80). If a compound acted as a potentiator, an EC50 value for potentiation of the EC20 response and a maximum extent of potentiation by the compound at this concentration of agonist was determined by non-linear curve fitting. If a compound acted as an antagonist, an IC50 value for antagonism of the EC80 response and a maximum extent of antagonism by the compound at this concentration of agonist was determined by non-linear curve fitting. In the second mode (utilizing a double add protocol), several fixed concentrations of the present compounds were added to various wells on a plate, followed by a range of concentrations of agonist for each concentration of present compound; the EC50 values for the agonist at each concentration of compound were determined by nonlinear curve fitting. A decrease in the EC50 value of the agonist with increasing concentrations of the present compounds (a leftward shift of the agonist concentration-response curve) is an indication of the degree of mGluR5 positive allosteric modulation at a given concentration of the present compound. An increase in the EC50 value of the agonist with increasing concentrations of the present compounds (a rightward shift of the agonist concentration response curve) is an indication of the degree of mGluR5 antagonism at a given concentration of the present compound. The second mode also indicates whether the present compounds also affect the maximum response to mGluR5 to agonists.
The mGluR5 activity was determined using the metabotropic glutamate receptor activity assays in human embryonic kidney cells as described herein, wherein the human embryonic kidney cells were transfected with rat mGluR5. The mGluR5 activity data for some compounds are shown as the average of at least three experiments with the standard error in these cases. If no error is indicated for the mGluR5 activity, the values given represent the results from a single experiment or the average of two experiments. The compounds in Table 1 were synthesized with methods identical or analogous to those shown herein. The requisite starting materials were commercially available, described in the literature, or readily synthesized by one skilled in the art of organic synthesis.
The cells were grown overnight at 37° C. in the presence of 5% CO2. […] Dye was removed, 20 μL of assay buffer was added, and the plate was incubated for 10 minutes at room temperature.
Ca^2+ flux was measured using the Functional Drug Screening System (FDSS6000, Hamamatsu, Japan). After establishment of a fluorescence baseline for about 3 seconds, the compounds of the present invention were added to the cells, and the response in cells was measured.

elevated plus maze = test: Elevated plus maze; assay type: in vivo
Experimental: Test compounds (1) and (2) were administrated at the 10 mg/kg and 30 mg/kg doses described in this figure. […] Prospective In Vivo Effects

[1] = tested on: Marble Burying Activity in Mice; test: Inhibition of marble burying in mice (model of anxiolytic behavior); assay type: in vivo; conditions: WT and Fmrl KO C57BL/6J mice
Experimental: It is well known that mice will bury foreign objects such as glass marbles in deep bedding (Deacon, R. M. J. Nature Protocols 2006, 1, 122-124). […] These facts along with the relative convenience of this assay make it a useful in vivo screening tool.
Doses of compound were suspended in vehicle (10% Tween 80 for intraperitoneal dosing and 0.5% methylcellulose for oral dosing), vortexed vigorously, heated gently with a Master Heat Gun (Master Appliance Corp., Racine, Wis.), and sonicated at 37° C. for 30 minutes. The pH was checked using 0-14 EMD strips and adjusted to approximately 7. All doses were administered at approximately 10 mL/kg.
Studies were conducted using male Harlan CD-1 mice (Harlan Sprague Dawley, Indianapolis, Ind.), weighing 30 to 35 grams. Subjects were housed in a large colony room under a 12 hour light/dark cycle (lights on at 6:00 a.m.) with food and water provided ad libitum. Test sessions were performed between 10:00 a.m. and 4:00 p.m. All dose groups consisted of ≧10 mice. All experiments were conducted in accordance with the National Institute of Health regulations of animal care covered in Principles of Laboratory Animal Care (National Institutes of Health publication 85-23, revised 1985) and were approved by the Institutional Animal Care and Use Committee.
Plexiglass cages (32×17×14 cm) were arranged on top of a large, round table. Mice were transported from the colony room to the testing room and allowed to habituate for 30 minutes. […] The novel compound and comparator were evaluated in a counterbalanced design, in which all doses of compounds were tested in each session. […] Clear, perforated plastic lids were set on top of each cage and the amount of marble burying was recorded over a 30 minute interval. The mice were then removed from the cages and the number of buried marbles was counted using the criteria of greater than ⅔ covered by bedding. […]
The data for the dose-response studies were analyzed by a between-group analysis of variance. […]

[2] = Rat IV/PO pharmacokinetics; conditions: in vivo; for bioavailability / clearance / half-life / Vd: Rat IV/PO; for Vd: read-out: Vss; for Cmax / Tmax: Rat PO
From the text: Additional physicochemical and pharmacological data are provided below in Tables 2-4 for Test Compounds 1 and 2 (Compounds […] and (2) as described herein).

[3] = Cynomolgus monkey IV/PO pharmacokinetics; conditions: in vivo; for Cmax / Tmax: Cynomolgus monkey PO
[4] = tested on: Marble Burying Activity in Mice; conditions: literature (Spooren 2000; Nicolas 2006); cited from earlier work

Compound: Cc1cc(Oc2cncc(C#N)c2)cc(C(=O)Nc2cc(F)ccn2)n1
- IC50 (rat mGluR5): 15 nM

Compound: Cc1cc(Oc2cncc(C#N)c2)cc(C(=O)Nc2ccc(F)cn2)n1
- IC50 (rat mGluR5): 5.4 nM

Compound: Cc1ccc(NC(=O)c2cc(Oc3cccnc3)cc(C)n2)nc1
- IC50 (rat mGluR5): 10 nM

Compound: Cc1ccc(Oc2cc(C)nc(C(=O)Nc3cc(F)ccn3)c2)cn1
- IC50 (rat mGluR5): 1800 nM

Compound: Cc1ccc(NC(=O)c2cc(Oc3ccc(C)nc3)cc(C)n2)nc1
- IC50 (rat mGluR5): 966 nM

Compound: Cc1cc(Oc2cccnc2)cc(C(=O)Nc2ccc(F)cn2)n1
- IC50 (rat mGluR5): 4.1 nM

Compound: Cc1cc(Oc2cccnc2)cc(C(=O)Nc2cc(F)ccn2)n1
- IC50 (rat mGluR5): 26 nM

Compound: Cc1cc(Oc2cccnc2)cc(C(=O)Nc2cc(C#N)ccn2)n1
- IC50 (rat mGluR5): > 10000 nM

Compound: Cc1ccc(Oc2cc(C)nc(C(=O)Nc3cc(C#N)ccn3)c2)cn1
- IC50 (rat mGluR5): 387 nM

Compound: Cc1ccc(Oc2cc(C)nc(C(=O)Nc3ccc(F)c(C)n3)c2)cn1
- IC50 (rat mGluR5): 328 nM

Compound: Cc1cc(Oc2cccnc2)cc(C(=O)Nc2ccc(C#N)cn2)n1
- IC50 (rat mGluR5): 14 nM

Compound: Cc1cc(Oc2cccnc2)cc(C(=O)Nc2ccc(C(F)(F)F)cn2)n1
- IC50 (rat mGluR5): 1110 nM

Compound: Cc1cc(Oc2cncc(F)c2)cc(C(=O)Nc2ccc(F)cn2)n1 [Compound (1), N-(5-fluoropyridin-2-yl)-4-((5-fluoropyridin-3-yl)oxy)-6-methylpicolinamide]
- total distance traveled (elevated plus maze; 10 mg/kg): statistically significant beneficial effect
- total distance traveled (elevated plus maze; 30 mg/kg): statistically significant beneficial effect

Compound: Cc1cc(Oc2cncnc2)cc(C(=O)Nc2ccc(F)cn2)n1 [Compound (2), N-(5-fluoropyridin-2-yl)-6-methyl-4-(pyrimidin-5-yloxy)picolinamide]
- inhibition of marble burying vs. vehicle ([1]; 3 mg/kg PO 15 min prior to testing, 0.5% MC, 30 min burying): inhibition of marble burying was observed
- inhibition of marble burying vs. vehicle ([1]; 10 mg/kg PO 15 min prior to testing, 0.5% MC, 30 min burying): inhibition of marble burying was observed
- time spent in the open arms (elevated plus maze; 30 mg/kg): statistically significant increase in the time spent in the open arms
- total distance traveled (elevated plus maze; 30 mg/kg): statistically significant beneficial effect

Compound: Cc1nc(C#Cc2ccc(-c3cc(F)cc(C#N)c3)nc2)cs1 [STX107, reference compound]
- inhibition of marble burying vs. vehicle ([1]; positive control, 10 mg/kg free base IP 60 min ptx): inhibition of marble burying was observed

Compound: Cc1cc(Oc2cncnc2)cc(C(=O)Nc2ccc(F)cn2)n1 [drawing 265]
- bioavailability [2]: 30 to 76%
- clearance [2]: 19.2 mL/min/kg
- half-life [2]: 0.47 h
- Vd [2]: 1.78 L/kg
- Cmax [2]: 2170 nM
- Tmax [2]: 0.5 h

Compound: Cc1cc(Oc2cncc(F)c2)cc(C(=O)Nc2ccc(F)cn2)n1 [drawing 266]
- bioavailability [2]: 67 to 75%
- clearance [2]: 9.15 mL/min/kg
- half-life [2]: 4.7 h
- Vd [2]: 1.89 L/kg
- Cmax [2]: 3330 nM
- Tmax [2]: 1.5 h

Compound: Cc1cc(Oc2cncnc2)cc(C(=O)Nc2ccc(F)cn2)n1 [drawing 267]
- bioavailability ([3]; Cynomolgus monkey IV/PO): 42 to 45%
- clearance ([3]; Cynomolgus monkey IV/PO): 15.4 mL/min/kg
- half-life ([3]; Cynomolgus monkey IV/PO): 6.04 h
- Vd ([3]; Cynomolgus monkey IV/PO, read-out: Vss): 2.5 L/kg
- Cmax [3]: 858 nM
- Tmax [3]: 3 h

Compound: CN1CC(=O)N=C1NC(=O)Nc1cccc(Cl)c1 [fenobam, 1-(3-chlorophenyl)-3-(1-methyl-4-oxo-4,5-dihydro-1H-imidazol-2-yl)urea]
- effect in marble burying model [4]: effective in this model

Further lines, results first:

- IC50 (rat mGluR5): 13 nM
Compound: CCc1cccc(NC(=O)c2cc(Oc3cccnc3)cc(C)n2)n1

- IC50 (rat mGluR5): 5.5 nM
Compound: Cc1cc(Oc2cccnc2)cc(C(=O)Nc2ccc(Cl)cn2)n1

- IC50 (rat mGluR5): 152 nM
Compound: CCc1cccc(NC(=O)c2cc(Oc3ccc(C)nc3)cc(C)n2)n1

- IC50 (rat mGluR5): 635 nM
Compound: Cc1ccc(Oc2cc(C)nc(C(=O)Nc3ccc(Cl)cn3)c2)cn1

- IC50 (rat mGluR5): 3.4 nM
Compound: Cc1cc(Oc2cccnc2)cc(C(=O)Nc2cccc(F)n2)n1

- IC50 (rat mGluR5): 4.4 nM
Compound: Cc1cccc(NC(=O)c2cc(Oc3cccnc3)cc(C)n2)n1

- IC50 (rat mGluR5): 13 nM
Compound: Cc1ccc(Oc2cc(C)nc(C(=O)Nc3cccc(C)n3)c2)cn1

- IC50 (rat mGluR5): 5.3 nM
Compound: Cc1cc(Oc2cncc(Cl)c2)cc(C(=O)Nc2cccc(F)n2)n1

- IC50 (rat mGluR5): 6.4 nM
Compound: Cc1ccc(NC(=O)c2cc(Oc3cncc(Cl)c3)cc(C)n2)nc1

- IC50 (rat mGluR5): 548 nM
Compound: Cc1cc(Oc2cncc(Cl)c2)cc(C(=O)Nc2cc(C#N)ccn2)n1

- IC50 (rat mGluR5): 6.7 nM
Compound: Cc1cccc(NC(=O)c2cc(Oc3cncc(Cl)c3)cc(C)n2)n1

- IC50 (rat mGluR5): 64 nM
Compound: Cc1ccc(Oc2cc(C)nc(C(=O)Nc3cccc(F)n3)c2)cn1

- bioavailability ([3]; Cynomolgus monkey IV/PO): 25 to 45%
- clearance ([3]; Cynomolgus monkey IV/PO): 13.2 mL/min/kg
- half-life ([3]; Cynomolgus monkey IV/PO): 9.38 h
- Cmax [3]: 1360 nM
- Tmax [3]: 2 h
Compound: Cc1cc(Oc2cncc(F)c2)cc(C(=O)Nc2ccc(F)cn2)n1 [drawing 268]
